Here are results for one compound from patent US3997518A, “2-Alkyl-4-carboxyalkyl-5-(3,3'-dimethyltriazeno)-imidazoles” (Beecham Group Limited, priority 1970, dated 1976).

The structures appear in SMILES notation.

Data set [1] relates to R1 lymphoma. Briefly: Activity against R1 lymphoma, increase in survival time (Table A). The format is in vivo, mice. As to conditions: Mus musculus, ip; Table A strain; 32 mg/kg i.p. daily day 3 to day 7; dose of maximum increase; read-out: Medium % increase in survival time. As for the experimental part: (§1) The R1 lymphoma is normally sensitive to anti-metabolites. Typically mice having a transplant of 1.5 × 10^6 tumour cells die from the metastisizing tumour on day 9, 10 or 11 after transplant.
(§2) The compounds illustrated below were dosed by the intra peritoneal route in a vehicle of 10% acetone in arachas oil daily from day 3 to day 7 after tumour transplant. The increase in survival time over control was measured.
(§3) The dose reported is that dose which gave the maximum increase in survival time. Lower doses gave less activity and higher doses are toxic.
(§4) The results are split into two sections (in Table A and Table B) because two slightly different strains of R1 lymphoma were used.

In data set [2] the test system is R1 lymphoma. Briefly: Activity against R1 lymphoma, increase in survival time (Table B, slightly different strain). Format: in vivo, mice. As to conditions: Mus musculus, ip, Table B strain; 33 mg/kg i.p. daily day 3 to day 7; dose of maximum increase; read-out: Medium % increase in survival time. On the procedure: as §1, §2, §3, §4
Data set [3] concerns PC 6 tumour. Briefly: PC 6 tumour screen. The format is in vivo, mice. The text has this: The breadth of antitumour spectrum of the compounds of the invention in mice is illustrated by their activity in the ADJ/PC6 plasma cell tumour. This is a solid tumour sensitive to most alkylating agents. Good activity is rarely seen against this tumour and the R1 lymphoma.
The test of example 91 was repeated using the PC 6 tumour screen.

The conditions of data set [4]: Skibba et al., Biochemical Pharmacology, 19, 2043 (1970); cited from earlier work.

Turning to `CN(C)N=Nc1[nH]cnc1C(N)=O` [DIC, 4-Carboxamide-5-(3,3-dimethyltriazeno)imidazole, reference compound], the ILS at 32 mg/kg in data set [1] turned out to be 300%. Further, the ILS at 33 mg/kg in data set [2] came out at 60%. Further, the “Therapeutic Index” value in data set [3] (i.p. dosing) is given as 33; in data set [3] (oral dosing), 24. The degradation in man result in data set [4] was “degraded substantially to AIC”.
